Reference: publication PMC9350837, “Erwinia tasmaniensis levansucrase shows enantiomer selection for (S)-1,2,4-butanetriol” (Acta Crystallographica. Section F, Structural Biology …, 2022)

Target: T1, EtLsc (Erwinia tasmaniensis levansucrase) (Erwinia tasmaniensis, UniProt B2VCC3)
T1 construct: gene lsc; lsc gene amplified from Et1/99, pMCSG49 vector, E. coli BL21(DE3) Star pLysS; His6 tag cleaved with TEV protease; IMAC and size exclusion; catalytic triad Asp46, Asp203, Glu287
Experiment: microscale thermophoresis, label-free (Monolith NT.LabelFree)
Type: binding

T1 sequence (B2VCC3 entry or part of it): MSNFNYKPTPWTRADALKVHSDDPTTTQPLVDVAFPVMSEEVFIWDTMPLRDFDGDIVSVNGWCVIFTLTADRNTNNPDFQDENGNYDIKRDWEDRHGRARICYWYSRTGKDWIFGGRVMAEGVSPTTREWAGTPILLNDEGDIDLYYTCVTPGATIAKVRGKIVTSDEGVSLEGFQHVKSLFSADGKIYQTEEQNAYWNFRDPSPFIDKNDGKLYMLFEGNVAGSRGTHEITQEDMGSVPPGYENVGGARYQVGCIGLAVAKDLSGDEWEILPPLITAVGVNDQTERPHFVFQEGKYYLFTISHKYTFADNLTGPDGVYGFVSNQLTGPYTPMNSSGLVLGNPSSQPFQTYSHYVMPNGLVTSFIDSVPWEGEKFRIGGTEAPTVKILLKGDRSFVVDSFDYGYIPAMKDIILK

## OCC[C@H](O)CO (mixture of isomers) [(S)-1,2,4-butanetriol]
  Kd: 84.9 ± 13.4 mM
